Here are results for 22 compounds from patent publication US12590091B2, “1H-pyrrolo[3,2-C]pyridine and 1H-pyrrolo[2,3-C]pyridine derivatives as TLR9 inhibitors for the treatment of fibrosis” (BRISTOL-MYERS SQUIBB COMPANY, priority 2020, dated 2026).

This assay concerns the target T1, human TLR9 (Homo sapiens, UniProt Q9NR96).
T1 construct: host or cells: HEK-Blue cells
T1 sequence (Q9NR96 26-1032): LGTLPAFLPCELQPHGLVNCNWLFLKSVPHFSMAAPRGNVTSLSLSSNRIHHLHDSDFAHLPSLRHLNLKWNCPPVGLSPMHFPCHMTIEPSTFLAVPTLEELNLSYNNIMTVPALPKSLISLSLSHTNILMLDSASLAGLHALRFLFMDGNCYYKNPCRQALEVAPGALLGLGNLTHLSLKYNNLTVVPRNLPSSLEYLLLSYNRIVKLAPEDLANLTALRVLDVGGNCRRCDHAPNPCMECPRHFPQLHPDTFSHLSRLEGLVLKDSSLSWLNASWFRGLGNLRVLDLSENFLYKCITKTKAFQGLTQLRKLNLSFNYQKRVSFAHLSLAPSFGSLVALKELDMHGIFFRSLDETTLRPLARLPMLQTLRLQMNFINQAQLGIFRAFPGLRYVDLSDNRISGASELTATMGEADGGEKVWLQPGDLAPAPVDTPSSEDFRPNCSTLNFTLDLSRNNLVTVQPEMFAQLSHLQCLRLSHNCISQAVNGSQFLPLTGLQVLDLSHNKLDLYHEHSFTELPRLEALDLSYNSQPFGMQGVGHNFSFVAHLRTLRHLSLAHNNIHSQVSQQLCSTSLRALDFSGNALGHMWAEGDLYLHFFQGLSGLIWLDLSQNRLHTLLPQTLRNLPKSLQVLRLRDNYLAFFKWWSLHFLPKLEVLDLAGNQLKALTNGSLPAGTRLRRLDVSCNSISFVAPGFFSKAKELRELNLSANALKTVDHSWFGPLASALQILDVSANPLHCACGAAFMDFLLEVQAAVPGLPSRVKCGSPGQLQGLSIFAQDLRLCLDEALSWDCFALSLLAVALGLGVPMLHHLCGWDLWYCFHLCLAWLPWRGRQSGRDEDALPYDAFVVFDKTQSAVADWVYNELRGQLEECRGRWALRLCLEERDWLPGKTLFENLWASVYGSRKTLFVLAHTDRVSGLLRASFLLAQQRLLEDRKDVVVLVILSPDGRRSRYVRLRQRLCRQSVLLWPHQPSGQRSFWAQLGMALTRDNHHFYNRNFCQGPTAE
Description: TLR9 inhibition reporter assay (HEK-Blue cells, SEAP reporter). Conditions: HEK-Blue cells overexpressing human TLR9, stimulated with ODN2006 5 nM, 22 hour incubation. In kind it is cell-based. Put shortly:
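HEK-Blue cells overexpressing human TLR9 (25,000 cells/well), NF-κB/AP-1-driven SEAP reporter. Compounds at 0.05 nM–50 μM final, 22 h at 37 °C, 5% CO2 with agonist. SEAP detected with HEK-Blue Detection medium; % inhibition versus agonist plus DMSO and known-inhibitor wells.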

For `COCCN1C2CCC1CN(c1ccc(-c3cc4c(cc(-c5ccc(S(C)(=O)=O)cc5)n4C)c(C)n3)cc1F)C2` [Example 75, 6-(3-fluoro-4-(8-(2-methoxyethyl)-3,8-diazabicyclo[3.2.1]octan-3-yl)phenyl)-1,4-dimethyl-2-(4-(methylsulfonyl)phenyl)-1H-pyrrolo[3,2-c]pyridine], 75 nM corresponded to half-maximal inhibition (IC50). Next, `Cc1nc(-c2ccc(N3CC4CCC(C3)N4CCCO)cc2)cc2c1cc(-c1ccc(S(C)(=O)=O)cc1)n2C` [Example 76, 3-(3-(4-(1,4-dimethyl-2-(4-(methylsulfonyl)phenyl)-1H-pyrrolo[3,2-c]pyridin-6-yl)phenyl)-3,8-diazabicyclo[3.2.1]octan-8-yl)propan-1-ol]: 53 nM; `Cc1nc(-c2ccc(N3CC4CCC(C3)N4CCCO)c(F)c2)cc2c1cc(-c1ccc(S(C)(=O)=O)cc1)n2C` [Example 77, 3-(3-(4-(1,4-dimethyl-2-(4-(methylsulfonyl)phenyl)-1H-pyrrolo[3,2-c]pyridin-6-yl)-2-fluorophenyl)-3,8-diazabicyclo[3.2.1]octan-8-yl)propan-1-ol]: 126 nM. Next, `COCCN1C2CCC1CN(c1cc(F)c(-c3cc4c(cc(-c5ccc(S(C)(=O)=O)cc5)n4C)c(C)n3)cc1F)C2` [Example 78, 6-(2,5-difluoro-4-(8-(2-methoxyethyl)-3,8-diazabicyclo[3.2.1]octan-3-yl)phenyl)-1,4-dimethyl-2-(4-(methylsulfonyl)phenyl)-1H-pyrrolo[3,2-c]pyridine]: 147 nM. Next, `Cc1nc(-c2cc(F)c(N3CC4CCC(C3)N4CCCO)cc2F)cc2c1cc(-c1ccc(S(C)(=O)=O)cc1)n2C` [Example 79, 3-(3-(4-(1,4-dimethyl-2-(4-(methylsulfonyl)phenyl)-1H-pyrrolo[3,2-c]pyridin-6-yl)-2,5-difluorophenyl)-3,8-diazabicyclo[3.2.1]octan-8-yl) propan-1-ol]: 35 nM. Compound `Cc1nc(-c2ccc(N3CCN(CC(C)C)CC3)c(F)c2F)cc2c1cc(-c1ccc(S(C)(=O)=O)cc1)n2C` [Example 82, 6-(2,3-difluoro-4-(4-isobutylpiperazin-1-yl)phenyl)-1,4-dimethyl-2-(4-(methylsulfonyl)phenyl)-1H-pyrrolo[3,2-c]pyridine] had an IC50 of 329 nM. Under `Cc1nc(-c2ccc(C3(O)CCN(C4CC4)CC3)cc2)cc2c1cc(-c1ccc(S(C)(=O)=O)cc1)n2C` [Example 87, 1-cyclopropyl-4-(4-(1,4-dimethyl-2-(4-(methylsulfonyl)phenyl)-1H-pyrrolo[3,2-c]pyridin-6-yl)phenyl)piperidin-4-ol] stands 73 nM. `Cc1nc(-c2ccc(C3(O)CCN(C(C)C)CC3)cc2)cc2c1cc(-c1ccc(S(C)(=O)=O)cc1)n2C` [Example 88, 4-(4-(1,4-dimethyl-2-(4-(methylsulfonyl)phenyl)-1H-pyrrolo[3,2-c]pyridin-6-yl)phenyl)-1-isopropylpiperidin-4-ol] displayed a concentration for half-maximal inhibition (IC50) of 114 nM.

Regarding `Cc1nc(-c2ccc(N3CCN4CCCC4C3)c(F)c2F)cc2c1cc(-c1ccc(S(C)(=O)=O)cc1)n2C` (stereo not shown) [Example 99, 6-(2,3-difluoro-4-(hexahydropyrrolo[1,2-a]pyrazin-2(1H)-yl)phenyl)-1,4-dimethyl-2-(4-(methylsulfonyl)phenyl)-1H-pyrrolo[3,2-c]pyridine], the IC50 worked out at 250 nM. Next, `Cc1nc(-c2ccc(C3(O)CC4CCC(C3)N4C(C)C)c(F)c2)cc2c1cc(-c1ccc(S(C)(=O)=O)cc1)n2C` [Example 100, (1R,3r,5S)-3-(4-(1,4-dimethyl-2-(4-(methylsulfonyl)phenyl)-1H-pyrrolo[3,2-c]pyridin-6-yl)-2-fluorophenyl)-8-isopropyl-8-azabicyclo[3.2.1]octan-3-ol]: 184 nM. Next, `CCN1C2CCC1CC(O)(c1ccc(-c3cc4c(cc(-c5ccc(S(C)(=O)=O)cc5)n4C)c(C)n3)cc1F)C2` [Example 101, (1R,3r,5S)-3-(4-(1,4-dimethyl-2-(4-(methylsulfonyl)phenyl)-1H-pyrrolo[3,2-c]pyridin-6-yl)-2-fluorophenyl)-8-ethyl-8-azabicyclo[3.2.1]octan-3-ol]: 116 nM. Under `Cc1nc(-c2ccc(C3(O)CC4CCC(C3)N4C)c(F)c2)cc2c1cc(-c1ccc(S(C)(=O)=O)cc1)n2C` [Example 102, (1R,3r,5S)-3-(4-(1,4-dimethyl-2-(4-(methylsulfonyl)phenyl)-1H-pyrrolo[3,2-c]pyridin-6-yl)-2-fluorophenyl)-8-methyl-8-azabicyclo[3.2.1]octan-3-ol] stands 127 nM; under `Cc1nc(-c2ccc(C3(O)CCN(C(C)(C)C)CC3)c(F)c2)cc2c1cc(-c1ccc(S(C)(=O)=O)cc1)n2C` [Example 104, 1-(tert-butyl)-4-(4-(1,4-dimethyl-2-(4-(methylsulfonyl)phenyl)-1H-pyrrolo[3,2-c]pyridin-6-yl)-2-fluorophenyl)piperidin-4-ol], 161 nM. Compound `Cc1nc(-c2ccc([C@@]3(O)CCN(C(C)C)C(C)(C)C3)c(F)c2)cc2c1cc(-c1ccc(S(C)(=O)=O)cc1)n2C` [Example 105, (R)-4-(4-(1,4-dimethyl-2-(4-(methylsulfonyl)phenyl)-1H-pyrrolo[3,2-c]pyridin-6-yl)-2-fluorophenyl)-1-isopropyl-2,2-dimethylpiperidin-4-ol] registered an IC50 of 52 nM.

In the case of `Cc1nc(-c2ccc([C@]3(O)CCN(C(C)C)C(C)(C)C3)c(F)c2)cc2c1cc(-c1ccc(S(C)(=O)=O)cc1)n2C` [Example 106, (S)-4-(4-(1,4-dimethyl-2-(4-(methylsulfonyl)phenyl)-1H-pyrrolo[3,2-c]pyridin-6-yl)-2-fluorophenyl)-1-isopropyl-2,2-dimethylpiperidin-4-ol], half-maximal inhibition (IC50) required 47 nM.

`Cc1nc(-c2ccc(C3(O)CCN(C(C)C)CC3)c(F)c2)cc2c1cc(-c1ccc(S(C)(=O)=O)cc1)n2C` [Example 107, 4-(4-(1,4-dimethyl-2-(4-(methylsulfonyl)phenyl)-1H-pyrrolo[3,2-c]pyridin-6-yl)-2-fluorophenyl)-1-isopropylpiperidin-4-ol] had a 50% inhibitory concentration (IC50) of 18 nM.

Compound `Cc1nc(-c2ccc(C3(O)CCN(C(C)(C)C)CC3)cc2F)cc2c1cc(-c1ccc(S(C)(=O)=O)cc1)n2C` [Example 108, 1-(tert-butyl)-4-(4-(1,4-dimethyl-2-(4-(methylsulfonyl)phenyl)-1H-pyrrolo[3,2-c]pyridin-6-yl)-3-fluorophenyl)piperidin-4-ol] gave a concentration for half-maximal inhibition (IC50) of 204 nM. Next, `Cc1nc(-c2ccc(C3(O)CCN(C(C)C)CC3)cc2F)cc2c1cc(-c1ccc(S(C)(=O)=O)cc1)n2C` [Example 109, 4-(4-(1,4-dimethyl-2-(4-(methylsulfonyl)phenyl)-1H-pyrrolo[3,2-c]pyridin-6-yl)-3-fluorophenyl)-1-isopropylpiperidin-4-ol]: 188 nM; `Cc1nc(C2CCN(C3CC4CCC(C3)N4CC(C)C)CC2)cc2c1cc(-c1ccc(S(C)(=O)=O)cc1)n2C` (stereo not shown) [Example 114, 6-(1-(8-isobutyl-8-azabicyclo[3.2.1]octan-3-yl)piperidin-4-yl)-1,4-dimethyl-2-(4-(methylsulfonyl)phenyl)-1H-pyrrolo[3,2-c]pyridine]: 47 nM.

With `Cc1nc(-c2ccc(CN3CCN(CCC(C)(C)O)CC3)cc2)cc2c1c(F)c(-c1ccc(S(C)(=O)=O)cc1)n2C` [Example 115, 4-(4-(4-(3-fluoro-1,4-dimethyl-2-(4-(methylsulfonyl)phenyl)-1H-pyrrolo[3,2-c]pyridin-6-yl)benzyl)piperazin-1-yl)-2-methylbutan-2-ol], the half-maximal inhibitory concentration (IC50) was 615 nM. Under `Cc1nc(-c2ccc(CN3CCN(CCC(C)(C)O)CC3)cc2)cc2c1cc(-c1ccc(S(C)(=O)=O)cc1)n2C1CC1` [Example 116, 4-[4-[[4-[1-cyclopropyl-4-methyl-2-(4-methylsulfonylphenyl)pyrrolo[3,2-c]pyridin-6-yl]phenyl]methyl]piperazin-1-yl]-2-methyl-butan-2-ol] stands 59 nM.

On to `CC(C)N1CCN(c2ccc(-c3cc4c(cc(-c5ccc(S(C)(=O)=O)cc5)n4C)c(C(C)(C)O)n3)cc2)CC1` [Example 118, 2-[6-[4-(4-isopropylpiperazin-1-yl)phenyl]-1-methyl-2-(4-methylsulfonylphenyl)pyrrolo[3,2-c]pyridin-4-yl]propan-2-ol], for which the IC50 amounted to 57 nM.
